Reference: ChEMBL document CHEMBL5625261, “Cytotoxic effects of kinetin riboside and its selected analogues on cancer cell lines” (Bioorg Med Chem Lett, 2024)

Assays:
HeLa [1] = assay: Cytotoxicity against human HeLa cells assessed as reduction in cell viability incubated for 24 hrs by MTT assay; type: functional, cell-based
HeLa [2] = assay: Cytotoxicity against human HeLa cells assessed as reduction in cell viability incubated for 48 hrs by MTT assay; type: functional, cell-based
HeLa [3] = assay: Cytotoxicity against human HeLa cells assessed as reduction in cell viability incubated for 72 hrs by MTT assay; type: functional, cell-based
MCF7 [4] = assay: Cytotoxicity against human MCF7 cells assessed as reduction in cell viability incubated for 24 hrs by MTT assay; type: functional, cell-based; conditions: MCF7, 24 h
MCF7 [5] = assay: Cytotoxicity against human MCF7 cells assessed as reduction in cell viability incubated for 48 hrs by MTT assay; type: functional, cell-based; conditions: MCF7, 48 h
MCF7 [6] = assay: Cytotoxicity against human MCF7 cells assessed as reduction in cell viability incubated for 72 hrs by MTT assay; type: functional, cell-based; conditions: MCF7, 72 h
Caco-2 [7] = assay: Cytotoxicity against human Caco-2 cells assessed as reduction in cell viability incubated for 24 hrs by MTT assay; type: functional, cell-based; conditions: Caco-2, 24 h
Caco-2 [8] = assay: Cytotoxicity against human Caco-2 cells assessed as reduction in cell viability incubated for 48 hrs by MTT assay; type: functional, cell-based; conditions: Caco-2, 48 h
Caco-2 [9] = assay: Cytotoxicity against human Caco-2 cells assessed as reduction in cell viability incubated for 72 hrs by MTT assay; type: functional, cell-based; conditions: Caco-2, 72 h
OVCAR-3 [10] = assay: Cytotoxicity against human OVCAR-3 cells assessed as reduction in cell viability incubated for 24 hrs by MTT assay; type: functional, cell-based; conditions: OVCAR-3, 24 h
OVCAR-3 [11] = assay: Cytotoxicity against human OVCAR-3 cells assessed as reduction in cell viability incubated for 48 hrs by MTT assay; type: functional, cell-based; conditions: OVCAR-3, 48 h
OVCAR-3 [12] = assay: Cytotoxicity against human OVCAR-3 cells assessed as reduction in cell viability incubated for 72 hrs by MTT assay; type: functional, cell-based; conditions: OVCAR-3, 72 h
MIA PaCa-2 [13] = assay: Cytotoxicity against human MIA PaCa-2 cells assessed as reduction in cell viability incubated for 24 hrs by MTT assay; type: functional, cell-based; conditions: MIA PaCa-2, 24 h
MIA PaCa-2 [14] = assay: Cytotoxicity against human MIA PaCa-2 cells assessed as reduction in cell viability incubated for 48 hrs by MTT assay; type: functional, cell-based; conditions: MIA PaCa-2, 48 h
MIA PaCa-2 [15] = assay: Cytotoxicity against human MIA PaCa-2 cells assessed as reduction in cell viability incubated for 72 hrs by MTT assay; type: functional, cell-based; conditions: MIA PaCa-2, 72 h
[16] = Cytotoxicity against human MRC5 cells assessed as reduction in cell viability incubated for 24 hrs by MTT assay; type: toxicity, cell-based
[17] = Cytotoxicity against human MRC5 cells assessed as reduction in cell viability incubated for 48 hrs by MTT assay; type: toxicity, cell-based
[18] = Cytotoxicity against human MRC5 cells assessed as reduction in cell viability incubated for 72 hrs by MTT assay; type: toxicity, cell-based
HeLa [19] = assay: Cytotoxicity against human HeLa cells assessed as reduction in cell viability at 100 uM incubated for 24 hrs by MTT assay relative to control; type: functional
MCF7 [20] = assay: Cytotoxicity against human MCF7 cells assessed as reduction in cell viability at 100 uM incubated for 24 hrs by MTT assay relative to control; type: functional
MRC5 = assay: Cytotoxicity against human MRC5 cells assessed as reduction in cell viability at 100 uM incubated for 24 hrs by MTT assay relative to control; type: toxicity, cell-based; conditions: mrc5, 24 h
HL-60 [21] = assay: Cytotoxicity against human HL-60 cells assessed as inhibition of cell growth incubated for 5 days; type: functional, cell-based; conditions: HL-60, 120 h
M4Beu cell line = assay: Cytotoxicity against human M4Beu cell line assessed as inhibition of cell growth incubated for 14 days by crystal violet staining based assay; type: functional; conditions: 336 h
B16 = assay: Cytotoxicity against mouse B16 cells assessed as inhibition of cell growth incubated for 10 days by crystal violet staining based assay; type: functional; conditions: B16, 240 h
A-375 = assay: Antiproliferative activity against human A-375 cells assessed as cell growth inhibition incubated for 72 hrs by Beckman Coulter counting method; type: functional, cell-based; conditions: A-375, 72 h
G-361 = assay: Antiproliferative activity against human G361 cells assessed as cell growth inhibition incubated for 72 hrs by Beckman Coulter counting method; type: functional, cell-based; conditions: G-361, 72 h
LOX IMVI = assay: Antiproliferative activity against human LOX IMVI cells assessed as cell growth inhibition incubated for 72 hrs by Beckman Coulter counting method; type: functional, cell-based
HT-29 = assay: Antiproliferative activity against human HT-29 cells assessed as cell growth inhibition incubated for 72 hrs by Beckman Coulter counting method; type: functional, cell-based; conditions: HT-29, 72 h
HCT-116 = assay: Antiproliferative activity against human HCT-116 cells assessed as cell growth inhibition incubated for 72 hrs by Beckman Coulter counting method; type: functional, cell-based; conditions: HCT-116, 72 h
MIA PaCa-2 [22] = assay: Antiproliferative activity against human MIA PaCa-2 cells assessed as cell growth inhibition incubated for 72 hrs by Beckman Coulter counting method; type: functional, cell-based; conditions: MIA PaCa-2, 72 h
[23] = Antiproliferative activity against human HEK cells assessed as cell growth inhibition incubated for 72 hrs by Beckman Coulter counting method; type: toxicity, cell-based
[24] = Antiproliferative activity against human HS27 cells assessed as cell growth inhibition incubated for 72 hrs by Beckman Coulter counting method; type: toxicity, cell-based
CCRF-CEM = assay: Antiproliferative activity against human CEM cells assessed as cell growth inhibition incubated for 72 hrs by Calcein AM staining based fluorescence assay; type: functional
HL-60 [25] = assay: Antiproliferative activity against human HL-60 cells assessed as cell growth inhibition incubated for 72 hrs by Calcein AM staining based fluorescence assay; type: functional; conditions: HL-60, 72 h
MCF7 [26] = assay: Antiproliferative activity against human MCF7 cells assessed as cell growth inhibition incubated for 72 hrs by Calcein AM staining based fluorescence assay; type: functional; conditions: MCF7, 72 h
HeLa [27] = assay: Antiproliferative activity against human HeLa cells assessed as cell growth inhibition incubated for 72 hrs by Calcein AM staining based fluorescence assay; type: functional
A549 = assay: Antiproliferative activity against human A549 cells assessed as cell growth inhibition incubated for 48 hrs by MTT assay; type: functional, cell-based; conditions: A549, 48 h
HCT-15 = assay: Antiproliferative activity against human HCT-15 cells assessed as cell growth inhibition incubated for 4 days by SRB assay; type: functional, cell-based; conditions: HCT-15, 96 h
DU-145 = assay: Antiproliferative activity against human DU-145 cells assessed as reduction in cell viability incubated for 48 to 96 hrs by crystal violet staining assay; type: functional; conditions: time 48-96 hrs
[28] = Antiproliferative activity against human PZ-HPV-7 cells assessed as reduction in cell viability incubated for 48 to 96 hrs by crystal violet staining assay; type: toxicity, cell-based; conditions: time 48-96 hrs

`OC[C@H]1O[C@@H](n2cnc3c(NCc4ccco4)ncnc32)[C@H](O)[C@@H]1O` [KINETIN RIBOSIDE] showed an IC50 (HeLa [1]) greater than 100000 nM, an IC50 (HeLa [2]) greater than 100000 nM and an IC50 (HeLa [3]) greater than 100000 nM. For the same molecule, the IC50 (MCF7 [4]) was 16100 nM, the IC50 (MCF7 [5]) was 2800 nM and the IC50 (MCF7 [6]) was 2700 nM. The IC50 (Caco-2 [7]) was 88000 nM, the IC50 (Caco-2 [8]) was 42000 nM and the IC50 (Caco-2 [9]) was 23500 nM. For the same molecule, the IC50 (OVCAR-3 [10]) was greater than 100000 nM, the IC50 (OVCAR-3 [11]) was 7800 nM and the IC50 (OVCAR-3 [12]) was 3100 nM. The IC50 (MIA PaCa-2 [13]) was greater than 100000 nM, the IC50 (MIA PaCa-2 [14]) was 3100 nM and the IC50 (MIA PaCa-2 [15]) was 2600 nM. It also gave an IC50 at 24 h [16] of 18000 nM, an IC50 at 48 h [17] of 2500 nM and an IC50 at 72 h [18] of 1700 nM. The Activity (HeLa [19]) was roughly 30%, the Activity (MCF7 [20]) was roughly 80% and the Activity (MRC5) was ~ 80%. For the same molecule, the IC50 (HL-60 [21]) was 980 nM, the IC50 (M4Beu cell line) was 1500 nM and the IC50 (B16) was 200 nM. The IC50 (A-375) was 160 nM, the IC50 (G-361) was 160 nM and the IC50 (LOX IMVI) was 160 nM. For the same molecule, the IC50 (HT-29) was 160 nM, the IC50 (HCT-116) was 160 nM and the IC50 (MIA PaCa-2 [22]) was 160 nM. It also gave an IC50 at 72 h [23] of 110 nM, an IC50 at 72 h [24] of 180 nM and an IC50 (CCRF-CEM) of 1600 nM. For the same molecule, the IC50 (HL-60 [25]) was 800 nM, the IC50 (MCF7 [26]) was 4300 nM and the IC50 (HeLa [27]) was 4300 nM. It also gave an IC50 (A549) of 10500 nM, an IC50 (HCT-15) of 12300 nM and an Activity (DU-145) of 35%. The Activity [28] was 85%.
